Source: patent US20210284647A1, “N-(3-(IMIDAZO[1,2-B]PYRIDAZIN-3-YLETHYNYL)-4-METHYLPHENYL)-5-PHENYL-4,5-DIHYDRO-1H-PYRAZOLE-1-CARBOXAMIDE DERIVATIVE, AND PHARMACEUTICAL COMPOSITION CONTAINING SAME AS ACTIVE INGREDIENT FOR TREATING KINASE-RELATED DISEASES” (VORONOIBIO INC., priority 2018, published 2021)
Counter-ions that a name gives are not always drawn.

Experiments:
human GST-RIPK1 = molecular target: T1, human GST-RIPK1 (Homo sapiens, UniProt Q13546); experiment: RIPK1 inhibitory activity (ADP-Glo kinase assay); format: biochemical; conditions: human GST-RIPK1 10 ng, ATP 50 uM, 25° C. for 4 hours, read-out: Enzyme IC50
T1 construct: GST; purchased signalchem
T1 sequence (Q13546 1-375 limits assumed): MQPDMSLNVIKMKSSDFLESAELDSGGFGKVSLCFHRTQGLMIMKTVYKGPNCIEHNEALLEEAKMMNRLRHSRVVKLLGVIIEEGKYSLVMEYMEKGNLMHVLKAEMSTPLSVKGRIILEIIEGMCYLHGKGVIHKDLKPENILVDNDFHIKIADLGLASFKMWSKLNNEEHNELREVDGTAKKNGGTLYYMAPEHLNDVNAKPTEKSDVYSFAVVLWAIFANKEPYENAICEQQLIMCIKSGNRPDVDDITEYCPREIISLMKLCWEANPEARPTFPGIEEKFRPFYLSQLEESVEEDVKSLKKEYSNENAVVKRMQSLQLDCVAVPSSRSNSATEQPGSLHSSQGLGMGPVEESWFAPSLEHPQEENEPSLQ
Procedure, shortened: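 Purified human GST-RIPK1 (10 ng) was reacted with 50 uM ATP and substrate in Tris-HCl pH 7.4, MgCl2, BSA, DTT buffer for 4 h at 25 °C. ADP formed was read by ADP-Glo luminescence. IC50 is relative to solvent control, from three data sets.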

[1] = tested on: human Jurkat T cells deficient in FADD; experiment: Cell protection effect under apoptosis-inducing condition (TNF-α); format: cell-based; conditions: 40 ng of TNF-α, 50 hours, CellTiter-Glo, read-out: I2.I Cell EC50
Procedure, shortened: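 FADD-deficient Jurkat cells (10,000/well) were cultured for 24 h, then exposed to TNF-α (40 ng) plus compound in a 3-fold series from 1 µM top (0.05% DMSO) for 50 h. Viability was read by CellTiter-Glo luminescence. EC50 is the concentration giving 50% inhibition of apoptosis relative to solvent control.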

Row | SMILES | IC50 (human GST-RIPK1) [nM] | EC50 [1] [nM]
1 | O=C(Nc1cccn2c(C#Cc3cccc(NC(=O)N4N=CCC4c4ccccc4)c3)cnc12)C1CC1 (centres unmarked) [Example 62, N-(3-((8-(cyclopropanecarboxamido)imidazo[1,2-a]pyridin-3-yl)ethynyl)phenyl)-5-phenyl-4,5-dihydro-1H-pyrazole-1-carboxamide 2,2,2-trifluoroacetate] | 179 | 1.7
2 | O=C(Nc1cccc(C#Cc2cnn3cccnc23)c1)N1N=CCC1c1ccccc1 (centres unmarked) [Example 56, 5-phenyl-N-(3-(pyrazolo[1,5-a]pyrimidin-3-ylethynyl)phenyl)-4,5-dihydro-1H--pyrazole-1-carboxamide] | 30.5 | 0.3
3 | Cc1ccc(NC(=O)N2N=CC[C@H]2c2cccc(F)c2)cc1C#Cc1cnc2cccnn12 [Example 9, (S)-5-(3-fluorophenyl)-N-(3-(imidazo[1,2-b]pyridazin-3-ylethynyl)-4-methylphenyl)-4,5-dihydro-1H-pyrazole-1-carboxamide 2,2,2-trifluoroacetate] | 19.5 | 0.41
4 | Nc1cccn2c(C#Cc3cccc(NC(=O)N4N=CCC4c4ccccc4)c3)cnc12 (centres unmarked) [Example 59, N-(3-((8-aminoimidazo[1,2-a]pyridin-3-yl)ethynyl)phenyl)-5-phenyl-4,5-dihydro-1H-pyrazole-1-carboxamide hydrochloride] | 127 | 17.6
